Test results reported in paper PMC4700511 (Biochemistry, 2015).
In brackets after ≈: the same amount, converted by molar mass.

Experiments:
[1] = target: VIM-2 (Escherichia coli, UniProt Q5U7L7); assay: Hydrolysis of cefepime and ceftazidime by periplasm preparations, VIM-2; type: biochemical, P. aeruginosa; conditions: VIM-2 periplasmic preparation; 400 μM ceftazidime
[2] = target: T1, VIM-24 (Escherichia coli, UniProt Q5U7L7, R205L); assay: Hydrolysis of cefepime and ceftazidime by periplasm preparations, VIM-24; type: biochemical, Klebsiella pneumoniae; conditions: VIM-24 periplasmic preparation; 400 μM ceftazidime
[3] = test system: VIM-24; type: biochemical, Klebsiella pneumoniae; conditions: VIM-24 (R228L) vs VIM-2
[4] = test system: E. coli DH10B pBCSK(−) producing R228K; assay: MIC by agar dilution, E. coli DH10B pBCSK; type: cell-based; conditions: Escherichia coli
[5] = test system: E. coli DH10B pBCSK(−) producing R228Y; assay: MIC by agar dilution, E. coli DH10B pBCSK; type: cell-based; conditions: Escherichia coli
[6] = test system: E. coli DH10B pBCSK(−) producing R228Q; assay: MIC by agar dilution, E. coli DH10B pBCSK; type: cell-based; conditions: Escherichia coli
[7] = test system: E. coli DH10B pBCSK(−) producing R228X (other variants); assay: MIC by agar dilution, E. coli DH10B pBCSK; type: cell-based; conditions: Escherichia coli, R228X: range of MIC values of the other variants; MHA
[8] = test system: E. coli DH10B pBCSK(−) producing R228P; assay: MIC by agar dilution, E. coli DH10B pBCSK; type: cell-based; conditions: Escherichia coli
[9] = test system: E. coli DH10B pBCSK(−) producing VIM-24 (R228L); assay: MIC by agar dilution, E. coli DH10B pBCSK; type: cell-based; conditions: Escherichia coli
[10] = test system: E. coli pBC SK(−); assay: MIC by agar dilution, E. coli DH10B with empty pBC SK; type: cell-based; conditions: Escherichia coli
[11] = test system: E. coli DH10B pBCSK(−) producing R228M; assay: MIC by agar dilution, E. coli DH10B pBCSK; type: cell-based; conditions: Escherichia coli
[12] = test system: E. coli DH10B pBCSK(−) producing VIM-2 (228R); assay: MIC by agar dilution, E. coli DH10B pBCSK; type: cell-based; conditions: Escherichia coli
[13] = target: T1, VIM-24; type: biochemical, Klebsiella pneumoniae; conditions: VIM-24; substrate hydrolysis, 10 mM HEPES pH 7.5, 25 °C
[14] = test system: VIM-2-producing P. aeruginosa; assay: Imipenem MIC of the clinical isolate, VIM-2-producing P. aeruginosa; type: cell-based, Pseudomonas aeruginosa
[15] = test system: VIM-24-producing K. pneumoniae; assay: Imipenem MIC of the clinical isolate, VIM-24-producing K. pneumoniae; type: cell-based; conditions: Klebsiella pneumoniae, read-out: imipenem MIC, VIM-24-producing K. pneumoniae
[16] = test system: C[C@@H](O)[C@H]1C(=O)N2C(C(=O)O)=C(SCCN=CN)C[C@H]12; assay: purified protein, by the assay type; conditions: other: VIM-2, substrate hydrolysis, 10 mM HEPES pH 7.5, 25 °C
[17] = test system: O=C(Cc1cccs1)N[C@@H]1C(=O)N2C(C(=O)O)=C(/C=C/c3ccc([N+](=O)[O-])cc3[N+](=O)[O-])CS[C@H]12; assay: purified protein, by the assay type; conditions: other: VIM-2, substrate hydrolysis, 10 mM HEPES pH 7.5, 25 °C
[18] = test system: CC(=O)OCC1=C(C(=O)O)N2C(=O)[C@@H](NC(=O)Cc3cccs3)[C@H]2SC1; assay: purified protein, by the assay type; conditions: other: VIM-2, substrate hydrolysis, 10 mM HEPES pH 7.5, 25 °C

In the case of CC(C)(O/N=C(\C(=O)N[C@@H]1C(=O)N2C(C(=O)[O-])=C(C[n+]3ccccc3)CS[C@H]12)c1csc(N)n1)C(=O)O [ceftazidime], the “rate of hydrolysis (initial velocity) in periplasm” value [1] is reported as “measurable rates of hydrolysis were not obtained”, the “rate of hydrolysis (initial velocity) in periplasm” value [2] is reported as 4e-07 M/s and the “kcat/KM increase of VIM-24 compared to VIM-2” value [3] is reported as 6 fold. For the same compound, the MIC ([4]; MHA) was 1 µg/mL (≈ 1.83 µM), the MIC ([4]; MHA + 5 μM EDTA) was at most 1 µg/mL and the MIC ([4]; MHA + 250 μM Zn^2+) was at most 1 µg/mL. For the same compound, the MIC ([5]; MHA) was 64 µg/mL (≈ 117 µM), the MIC ([5]; MHA + 5 μM EDTA) was 64 µg/mL and the MIC ([5]; MHA + 250 μM Zn^2+) was 128 µg/mL. The MIC ([6]; MHA) was 128 µg/mL (≈ 234 µM), the MIC ([6]; MHA + 5 μM EDTA) was 128 µg/mL and the MIC ([6]; MHA + 250 μM Zn^2+) was 512 µg/mL. It also gave an MIC [7] of 16 to 128 µg/mL (≈ 29.3 to 234 µM), an MIC ([8]; MHA) of 1 µg/mL (≈ 1.83 µM) and an MIC ([8]; MHA + 5 μM EDTA) of at most 1 µg/mL. It also gave an MIC ([8]; MHA + 250 μM Zn^2+) of 4 µg/mL, an MIC ([9]; MHA) of 64 µg/mL (≈ 117 µM) and an MIC ([9]; MHA + 5 μM EDTA) of 32 µg/mL. It also gave an MIC ([9]; MHA + 250 μM Zn^2+) of 128 µg/mL, an MIC ([10]; MHA) of 0.06 µg/mL (≈ 0.11 µM) and an MIC ([10]; MHA + 5 μM EDTA) of at most 1 µg/mL. It also gave an MIC ([10]; MHA + 250 μM Zn^2+) of at most 1 µg/mL, an MIC ([11]; MHA) of 128 µg/mL (≈ 234 µM) and an MIC ([11]; MHA + 5 μM EDTA) of 64 µg/mL. For the same compound, the MIC ([11]; MHA + 250 μM Zn^2+) was 256 µg/mL, the MIC ([12]; MHA) was 16 µg/mL (≈ 29.3 µM) and the MIC ([12]; MHA + 5 μM EDTA) was 16 µg/mL. For the same compound, the MIC ([12]; MHA + 250 μM Zn^2+) was 32 µg/mL.
Compound CO/N=C(\C(=O)N[C@@H]1C(=O)N2C(C(=O)O)=C(CSc3nc(=O)c(=O)[nH]n3C)CS[C@H]12)c1csc(N)n1 [ceftriaxone] has an MIC ([4]; MHA) of 1 µg/mL (≈ 1.8 µM), an MIC ([5]; MHA) of 16 µg/mL (≈ 28.9 µM) and an MIC ([6]; MHA) of 32 µg/mL (≈ 57.7 µM). It also gave an MIC [7] of 1 to 16 µg/mL (≈ 1.8 to 28.9 µM), an MIC ([8]; MHA) of 0.5 µg/mL (≈ 0.902 µM) and an MIC ([9]; MHA) of 8 µg/mL (≈ 14.4 µM). The MIC ([10]; MHA) was 0.5 µg/mL (≈ 0.902 µM), the MIC ([11]; MHA) was 16 µg/mL (≈ 28.9 µM) and the MIC ([12]; MHA) was 8 µg/mL (≈ 14.4 µM).
In the case of CC(=O)OCC1=C(C(=O)O)N2C(=O)[C@@H](NC(=O)Cc3cccs3)[C@H]2SC1 [cephalothin], the kcat [13] is reported as 150 ± 9 s⁻¹, the MIC ([4]; MHA) is reported as 16 µg/mL (≈ 40.4 µM) and the MIC ([5]; MHA) is reported as 256 µg/mL (≈ 646 µM). It also gave an MIC ([6]; MHA) of 1020 µg/mL (≈ 2580 µM), an MIC [7] of 64 to 256 µg/mL (≈ 161 to 646 µM) and an MIC ([8]; MHA) of 16 µg/mL (≈ 40.4 µM). For the same compound, the MIC ([9]; MHA) was 256 µg/mL (≈ 646 µM), the MIC ([10]; MHA) was 8 µg/mL (≈ 20.2 µM) and the MIC ([11]; MHA) was 256 µg/mL (≈ 646 µM). The MIC ([12]; MHA) was 256 µg/mL (≈ 646 µM).
For C[C@@H](O)[C@H]1C(=O)N2C(C(=O)O)=C(SCCN=CN)C[C@H]12 [imipenem], the MIC ([14]; Pseudomonas aeruginosa, read-out: imipenem MIC) was 32 µg/mL, the “imipenem MIC” value ([14]; VIM-2 harboring P. aeruginosa clinical isolate) was 32 µg/mL and the Km [13] was 5 ± 0.7 µM. It also gave a kcat [13] of 8.8 ± 0.3 s⁻¹, an MIC ([4]; MHA) of 0.25 µg/mL (≈ 0.835 µM) and an MIC ([4]; MHA + 5 μM EDTA) of 0.25 µg/mL. It also gave an MIC ([4]; MHA + 250 μM Zn^2+) of 0.25 µg/mL, an MIC ([5]; MHA) of 1 µg/mL (≈ 3.34 µM) and an MIC ([5]; MHA + 5 μM EDTA) of 1 µg/mL. It also gave an MIC ([5]; MHA + 250 μM Zn^2+) of 1 µg/mL, an MIC [15] of 2 µg/mL and an MIC ([6]; MHA) of 4 µg/mL (≈ 13.4 µM). The MIC ([6]; MHA + 5 μM EDTA) was 4 µg/mL, the MIC ([6]; MHA + 250 μM Zn^2+) was over 4 µg/mL and the MIC [7] was 0.25 to 1 µg/mL (≈ 0.835 to 3.34 µM). The MIC ([8]; MHA) was 0.5 µg/mL (≈ 1.67 µM), the MIC ([8]; MHA + 5 μM EDTA) was at most 0.125 µg/mL and the MIC ([8]; MHA + 250 μM Zn^2+) was 0.25 µg/mL. The MIC ([9]; MHA) was 0.5 µg/mL (≈ 1.67 µM), the MIC ([9]; MHA + 5 μM EDTA) was 0.5 µg/mL and the MIC ([9]; MHA + 250 μM Zn^2+) was 1 µg/mL. The MIC ([10]; MHA) was 0.25 µg/mL (≈ 0.835 µM), the MIC ([10]; MHA + 5 μM EDTA) was at most 0.125 µg/mL and the MIC ([10]; MHA + 250 μM Zn^2+) was 0.25 µg/mL. For the same compound, the MIC ([11]; MHA) was 2 µg/mL (≈ 6.68 µM), the MIC ([11]; MHA + 5 μM EDTA) was 1 µg/mL and the MIC ([11]; MHA + 250 μM Zn^2+) was 4 µg/mL. It also gave an MIC ([12]; MHA) of 0.5 µg/mL (≈ 1.67 µM), an MIC ([12]; MHA + 5 μM EDTA) of 0.5 µg/mL and an MIC ([12]; MHA + 250 μM Zn^2+) of 1 µg/mL.
O=C(Cc1cccs1)N[C@@H]1C(=O)N2C(C(=O)O)=C(/C=C/c3ccc([N+](=O)[O-])cc3[N+](=O)[O-])CS[C@H]12 [nitrocefin] gave a kcat [13] of 171 ± 4 s⁻¹.
VIM-2 (Escherichia coli) showed a Km [16] of 12 ± 1 µM, a kcat [16] of 45 ± 1 s⁻¹ and a kcat/Km [16] of 3.6e+06 M⁻¹ s⁻¹. It also gave a Km [17] of 13 ± 1 µM, a kcat [17] of 430 ± 20 s⁻¹ and a kcat/Km [17] of 3.3e+07 M⁻¹ s⁻¹. For the same compound, the Km [18] was 17 ± 2 µM, the kcat [18] was 168 ± 8 s⁻¹ and the kcat/Km [18] was 9.8e+06 M⁻¹ s⁻¹.
